From PubChem BioAssay (NCI)
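All cell lines were grown in 96-well plates and treated with compound for 48 hours. GI50 is the concentration that inhibits growth by half. At the TGI there is no net growth.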

Columns and labels:
Test in all cases: NCI-60 cell line screen, 48 h
[1] = tested on: 786-0 renal
[2] = tested on: A549 NSCLC
[3] = tested on: ACHN renal
[4] = tested on: CAKI-1 renal
[5] = tested on: DU-145 prostate
[6] = tested on: EKVX NSCLC
[7] = tested on: HCT-15 colon
[8] = tested on: HOP-62 NSCLC
[9] = tested on: HS 578T breast
[10] = tested on: HT29 colon
[11] = tested on: IGROV1 ovarian
[12] = tested on: KM12 colon
[13] = tested on: LOX IMVI melanoma
[14] = tested on: M14 melanoma
[15] = tested on: MALME-3M melanoma
[16] = tested on: MCF7 breast
[17] = tested on: MDA-MB-231 breast
[18] = tested on: MDA-MB-435
[19] = tested on: NCI-H226 lung
[20] = tested on: NCI-H23 lung
[21] = tested on: NCI-H460 lung
[22] = tested on: NCI-H522 lung
[23] = tested on: NCI/ADR-RES ovarian
[24] = tested on: OVCAR-3 ovarian
[25] = tested on: OVCAR-4 ovarian
[26] = tested on: OVCAR-5 ovarian
[27] = tested on: OVCAR-8 ovarian
[28] = tested on: RXF 393 renal
[29] = tested on: SF-268 CNS
[30] = tested on: SF-295 CNS
[31] = tested on: SF-539 CNS
[32] = tested on: SK-MEL-2 melanoma
[33] = tested on: SK-MEL-28 melanoma
[34] = tested on: SK-MEL-5 melanoma
[35] = tested on: SK-OV-3 ovarian
[36] = tested on: SN12C renal
[37] = tested on: SNB-19 CNS
[38] = tested on: SNB-75 CNS
[39] = tested on: SW-620 colon
[40] = tested on: T-47D breast
[41] = tested on: TK-10 renal
[42] = tested on: U251 CNS
[43] = tested on: UACC-62 melanoma
[44] = tested on: UO-31 renal
[45] = tested on: A498 renal
[46] = tested on: CCRF-CEM leukemia
[47] = tested on: HCC-2998 colon
[48] = tested on: HL-60(TB) leukemia
[49] = tested on: HOP-92 NSCLC
[50] = tested on: K-562 leukemia
[51] = tested on: MOLT-4 leukemia
[52] = tested on: PC-3 prostate
[53] = tested on: SR leukemia
[54] = tested on: UACC-257 melanoma
[55] = tested on: BT-549 breast
[56] = tested on: COLO 205 colon
[57] = tested on: HCT-116 colon
[58] = tested on: RPMI-8226 leukemia

CCCC(=O)/C=C/S/C=C/C(=O)CCC
TGI [1]: 4.98 µM
TGI [2]: > 100 µM
TGI [3]: 6.92 µM
TGI [4]: 7.4 µM
TGI [5]: 27.1 µM
TGI [6]: 10.6 µM
TGI [7]: 8.22 µM
TGI [8]: 42.6 µM
TGI [9]: 36.3 µM
TGI [10]: > 100 µM
TGI [11]: 47.9 µM
TGI [12]: 37.3 µM
TGI [13]: 6.27 µM
TGI [14]: 9 µM
TGI [15]: 25.4 µM
TGI [16]: > 100 µM
TGI [17]: 23.8 µM
TGI [18]: 18.6 µM
TGI [19]: 17.9 µM
TGI [20]: 7.7 µM
TGI [21]: > 100 µM
TGI [22]: 4.2 µM
TGI [23]: 9.05 µM
TGI [24]: 18.7 µM
TGI [25]: 43.2 µM
TGI [26]: 9.69 µM
TGI [27]: 5.46 µM
TGI [28]: 21.4 µM
TGI [29]: > 100 µM
TGI [30]: 66.3 µM
TGI [31]: 27 µM
TGI [32]: > 100 µM
TGI [33]: 18.7 µM
TGI [34]: 16.1 µM
TGI [35]: > 100 µM
TGI [36]: 28 µM
TGI [37]: 72.3 µM
TGI [38]: 83.6 µM
TGI [39]: 6.05 µM
TGI [40]: > 100 µM
TGI [41]: 14.5 µM
TGI [42]: 66.2 µM
TGI [43]: 29.8 µM
TGI [44]: > 100 µM

O=C(N1CCC(CN=c2cc3n(-c4ccc(Cl)cc4)c4ccccc4nc-3cc2Nc2ccc(Cl)cc2)CC1)N1CC1
GI50 [45]: 1.75 µM
TGI [45]: 3.61 µM
GI50 [2]: 0.71 µM
TGI [2]: 11.7 µM
GI50 [3]: 1.63 µM
TGI [3]: 3.21 µM
GI50 [4]: 1.38 µM
TGI [4]: 3.88 µM
GI50 [46]: 0.253 µM
TGI [46]: 1.15 µM
GI50 [5]: 1.3 µM
TGI [5]: 2.65 µM
GI50 [6]: 1.53 µM
TGI [6]: 3.22 µM
GI50 [47]: 0.632 µM
TGI [47]: 1.58 µM
GI50 [7]: 0.512 µM
TGI [7]: 1.87 µM
GI50 [48]: 1.5 µM
TGI [48]: 3.64 µM
GI50 [49]: 13.5 µM
TGI [49]: 37 µM
GI50 [9]: 1.48 µM
TGI [9]: 3.54 µM
GI50 [10]: 0.204 µM
TGI [10]: 0.547 µM
GI50 [50]: 0.286 µM
GI50 [12]: 1.4 µM
TGI [12]: 3.21 µM
GI50 [51]: 0.792 µM
TGI [51]: 3.91 µM
GI50 [19]: 23.6 µM
TGI [19]: 74.2 µM
GI50 [20]: 1.65 µM
TGI [20]: 3.23 µM
GI50 [22]: 1.32 µM
TGI [22]: 2.73 µM
GI50 [24]: 1.1 µM
TGI [24]: 2.69 µM
GI50 [26]: 1.85 µM
TGI [26]: 3.39 µM
GI50 [52]: 1.63 µM
TGI [52]: 3.38 µM
GI50 [28]: 0.369 µM
TGI [28]: 1.29 µM
GI50 [29]: 1.3 µM
TGI [29]: 3.69 µM
GI50 [31]: 1.63 µM
TGI [31]: 3.13 µM
GI50 [32]: 0.632 µM
TGI [32]: 2.04 µM
GI50 [33]: 0.519 µM
TGI [33]: 0.981 µM
GI50 [34]: 1.49 µM
TGI [34]: 2.81 µM
GI50 [35]: 2.25 µM
TGI [35]: 4.64 µM
GI50 [53]: 0.337 µM
TGI [53]: 2.25 µM
GI50 [39]: 0.709 µM
TGI [39]: 2.05 µM
GI50 [40]: 2.41 µM
TGI [40]: 5.91 µM
GI50 [42]: 1.23 µM
TGI [42]: 2.48 µM
GI50 [54]: 0.605 µM
TGI [54]: 1.89 µM
GI50 [43]: 1.92 µM
TGI [43]: 3.47 µM

CN(C)CCCNC(=O)c1cc(NC(=O)c2cc(NC(=O)[C@H]3C[C@@H]3C(=O)Nc3cc(C(=O)Nc4cc(C(=O)NCCCN(C)C)n(C)c4)n(C)c3)cn2C)cn1C
TGI [1]: > 100 µM
TGI [2]: > 100 µM
TGI [3]: > 100 µM
TGI [55]: > 100 µM
TGI [4]: > 100 µM
TGI [46]: > 100 µM
TGI [56]: > 100 µM
TGI [5]: > 100 µM
TGI [6]: > 100 µM
TGI [47]: > 100 µM
TGI [57]: > 100 µM
TGI [7]: > 100 µM
TGI [48]: > 100 µM
TGI [8]: > 100 µM
TGI [49]: 7.96 µM
TGI [10]: > 100 µM
TGI [11]: > 100 µM
TGI [50]: > 100 µM
TGI [12]: > 100 µM
TGI [13]: > 100 µM
TGI [14]: > 100 µM
TGI [15]: > 100 µM
TGI [16]: > 100 µM
TGI [17]: > 100 µM
TGI [18]: > 100 µM
TGI [51]: > 100 µM
TGI [19]: > 100 µM
TGI [20]: > 100 µM
TGI [21]: > 100 µM
TGI [22]: > 100 µM
TGI [23]: > 100 µM
TGI [25]: > 100 µM
TGI [26]: > 100 µM
TGI [27]: > 100 µM
TGI [52]: > 100 µM
TGI [58]: > 100 µM
TGI [29]: > 100 µM
TGI [30]: > 100 µM
TGI [31]: > 100 µM
TGI [32]: > 100 µM
TGI [34]: > 100 µM
TGI [36]: > 100 µM
TGI [37]: > 100 µM
TGI [38]: > 100 µM
TGI [53]: > 100 µM
TGI [39]: > 100 µM
TGI [42]: > 100 µM
TGI [54]: > 100 µM
